{"source": "patent US20230085307A1", "about": "“PYRIDAZINONE COMPOUND AND HERBICIDE” (NISSAN CHEMICAL CORPORATION, priority 2019, published 2023)", "key": {"velvetleaf [1]": {"test_system": "velvetleaf", "test": "Test Example 5: herbicidal effect by foliage application, plastic box (Table 20, symbol M)", "assay_type": "in vivo, velvetleaf (Abutilon theophrasti)", "conditions": "foliage application, AAH 320 g/ha, three weeks after application", "in_short": "(§1)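 Sow seeds spot-wise in sterilized diluvial soil; cover with ~1.5 cm soil. Grow 14 days in greenhouse, 25° C. to 30° C. Spray foliage with emulsion diluted to predetermined amount. Rate effect after 3 weeks.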"}, "lambsquarters [2]": {"test_system": "lambsquarters", "test": "Test Example 4: herbicidal effect by soil treatment (Table 19, symbol O)", "assay_type": "in vivo, lambsquarters (Chenopodium album)", "conditions": "AAH 320 g/ha", "in_short": "(§2)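 Applied as a water-diluted emulsion, the compound was sprayed onto soil covering newly sown seeds. Evaluation came three weeks after application, in a greenhouse held at 25° C. to 30° C.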"}, "green foxtail [3]": {"test_system": "green foxtail", "test": "Test Example 5: herbicidal effect by foliage application, plastic box (Table 20, symbol G)", "assay_type": "in vivo, green foxtail (Setaria viridis)", "conditions": "foliage application, AAH 320 g/ha, three weeks after application", "in_short": "as §1"}, "false cleavers": {"test_system": "false cleavers", "test": "Test Example 4: herbicidal effect by soil treatment (Table 19, symbol Q)", "assay_type": "in vivo, false cleavers (Galium spurium)", "conditions": "AAH 320 g/ha", "in_short": "as §2"}, "Chinese sprangletop": {"test_system": "Chinese sprangletop", "test": "Test Example 3: herbicidal effect by foliage application, Wagner pot (Table 18, symbol D)", "assay_type": "in vivo, chinese sprangletop (Leptochloa chinensis)", "conditions": "320 g/ha", "in_short": "(§3)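 Plants were sown in alluvial soil held under 0.1–0.5 cm standing water and grown 14 days in a greenhouse at 25–30 °C. An emulsifiable formulation, water-diluted to the set dose, was then sprayed onto the foliage, and effects were scored three weeks later using previously defined criteria.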"}, "wild oat [4]": {"test_system": "wild oat", "test": "Test Example 4: herbicidal effect by soil treatment (Table 19, symbol I)", "assay_type": "in vivo, wild oat (Avena fatua)", "conditions": "AAH 320 g/ha", "in_short": "as §2"}, "blackgrass [5]": {"test_system": "blackgrass", "test": "Test Example 5: herbicidal effect by foliage application, plastic box (Table 20, symbol J)", "assay_type": "in vivo, blackgrass (Alopecurus myosuroides)", "conditions": "foliage application, AAH 320 g/ha, three weeks after application", "in_short": "as §1"}, "Italian ryegrass [6]": {"test_system": "Italian ryegrass", "test": "Test Example 4: herbicidal effect by soil treatment (Table 19, symbol K)", "assay_type": "in vivo, Italian ryegrass (Lolium multiflorum)", "conditions": "AAH 320 g/ha", "in_short": "as §2"}, "lambsquarters [7]": {"test_system": "lambsquarters", "test": "Test Example 5: herbicidal effect by foliage application, plastic box (Table 20, symbol O)", "assay_type": "in vivo, lambsquarters (Chenopodium album)", "conditions": "foliage application, AAH 320 g/ha, three weeks after application", "in_short": "as §1"}, "Italian ryegrass [8]": {"test_system": "Italian ryegrass", "test": "Test Example 5: herbicidal effect by foliage application, plastic box (Table 20, symbol K)", "assay_type": "in vivo, Italian ryegrass (Lolium multiflorum)", "conditions": "foliage application, AAH 320 g/ha, three weeks after application", "in_short": "as §1"}, "barnyard grass [9]": {"test_system": "barnyard grass", "test": "Test Example 5: herbicidal effect by foliage application, plastic box (Table 20, symbol H)", "assay_type": "in vivo, barnyard grass (Echinochloa crus-galli)", "conditions": "foliage application, AAH 320 g/ha, three weeks after application", "in_short": "as §1"}, "barnyard grass [10]": {"test_system": "barnyard grass", "test": "Test Example 4: herbicidal effect by soil treatment (Table 19, symbol H)", "assay_type": "in vivo, barnyard grass (Echinochloa crus-galli)", "conditions": "AAH 320 g/ha", "in_short": "as §2"}, "velvetleaf [11]": {"test_system": "velvetleaf", "test": "Test Example 4: herbicidal effect by soil treatment (Table 19, symbol M)", "assay_type": "in vivo, velvetleaf (Abutilon theophrasti)", "conditions": "AAH 320 g/ha", "in_short": "as §2"}, "southern crabgrass [12]": {"test_system": "southern crabgrass", "test": "Test Example 4: herbicidal effect by soil treatment (Table 19, symbol F)", "assay_type": "in vivo, southern crabgrass (Digitaria ciliaris)", "conditions": "AAH 320 g/ha", "in_short": "as §2"}, "chickweed [13]": {"test_system": "chickweed", "test": "Test Example 4: herbicidal effect by soil treatment (Table 19, symbol P)", "assay_type": "in vivo, common chickweed (Stellaria media)", "conditions": "AAH 320 g/ha", "in_short": "as §2"}, "green foxtail [14]": {"test_system": "green foxtail", "test": "Test Example 4: herbicidal effect by soil treatment (Table 19, symbol G)", "assay_type": "in vivo, green foxtail (Setaria viridis)", "conditions": "AAH 320 g/ha", "in_short": "as §2"}, "redroot pigweed [15]": {"test_system": "redroot pigweed", "test": "Test Example 4: herbicidal effect by soil treatment (Table 19, symbol N)", "assay_type": "in vivo, redroot pigweed (Amaranthus retroflexus)", "conditions": "AAH 320 g/ha", "in_short": "as §2"}, "persian speedwell [16]": {"test_system": "persian speedwell", "test": "Test Example 4: herbicidal effect by soil treatment (Table 19, symbol R)", "assay_type": "in vivo, Persian speedwell (Veronica persica)", "conditions": "AAH 320 g/ha", "in_short": "as §2"}, "rice flat sedge": {"test_system": "rice flat sedge", "test": "Test Example 3: herbicidal effect by foliage application, Wagner pot (Table 18, symbol E)", "assay_type": "in vivo, rice flat sedge (Cyperus iria)", "conditions": "320 g/ha", "in_short": "as §3"}, "redroot pigweed [17]": {"test_system": "redroot pigweed", "test": "Test Example 5: herbicidal effect by foliage application, plastic box (Table 20, symbol N)", "assay_type": "in vivo, redroot pigweed (Amaranthus retroflexus)", "conditions": "foliage application, AAH 320 g/ha, three weeks after application", "in_short": "as §1"}, "barnyard grass [18]": {"test_system": "barnyard grass", "test": "Test Example 3: herbicidal effect by foliage application, Wagner pot (Table 18, symbol H)", "assay_type": "in vivo, barnyard grass (Echinochloa crus-galli)", "conditions": "320 g/ha", "in_short": "as §3"}, "windgrass": {"test_system": "windgrass", "test": "Test Example 5: herbicidal effect by foliage application, plastic box (Table 20, symbol L)", "assay_type": "in vivo, windgrass (Apera spica-venti)", "conditions": "foliage application, AAH 320 g/ha, three weeks after application", "in_short": "as §1"}, "southern crabgrass [19]": {"test_system": "southern crabgrass", "test": "Test Example 5: herbicidal effect by foliage application, plastic box (Table 20, symbol F)", "assay_type": "in vivo, southern crabgrass (Digitaria ciliaris)", "conditions": "foliage application, AAH 320 g/ha, three weeks after application", "in_short": "as §1"}, "blackgrass [20]": {"test_system": "blackgrass", "test": "Test Example 4: herbicidal effect by soil treatment (Table 19, symbol J)", "assay_type": "in vivo, blackgrass (Alopecurus myosuroides)", "conditions": "AAH 320 g/ha", "in_short": "as §2"}, "chickweed [21]": {"test_system": "chickweed", "test": "Test Example 5: herbicidal effect by foliage application, plastic box (Table 20, symbol P)", "assay_type": "in vivo, common chickweed (Stellaria media)", "conditions": "foliage application, AAH 320 g/ha, three weeks after application", "in_short": "as §1"}, "wild oat [22]": {"test_system": "wild oat", "test": "Test Example 5: herbicidal effect by foliage application, plastic box (Table 20, symbol I)", "assay_type": "in vivo, wild oat (Avena fatua)", "conditions": "foliage application, AAH 320 g/ha, three weeks after application", "in_short": "as §1"}, "persian speedwell [23]": {"test_system": "persian speedwell", "test": "Test Example 5: herbicidal effect by foliage application, plastic box (Table 20, symbol R)", "assay_type": "in vivo, Persian speedwell (Veronica persica)", "conditions": "foliage application, AAH 320 g/ha, three weeks after application", "in_short": "as §1"}}, "data": [{"compound": "COc1nn(C)c(=O)c(-c2c(-c3ccc(F)c(C)c3)sc3ccccc23)c1O", "note": "[1-174]", "values": [{"measurement": "M: velvetleaf, herbicidal effect", "setting": "velvetleaf [1]", "value": "4 (Herbicidal rate of 70% or more and less than 90%)"}, {"measurement": "O: lambsquarters, herbicidal effect rating", "setting": "lambsquarters [2]", "value": "0 (Herbicidal rate of 5% or less (almost no effect))"}, {"measurement": "G: green foxtail, herbicidal effect", "setting": "green foxtail [3]", "value": "2 (Herbicidal rate of 20% or more and less than 40%)"}, {"measurement": "Q: false cleavers, herbicidal effect rating", "setting": "false cleavers", "value": "0 (Herbicidal rate of 5% or less (almost no effect))"}, {"measurement": "herbicidal effect on D (Chinese sprangletop), rating 0-5", "setting": "Chinese sprangletop", "value": "0 (Herbicidal rate of 5% or less (almost no effect))"}, {"measurement": "I: wild oat, herbicidal effect rating", "setting": "wild oat [4]", "value": "0 (Herbicidal rate of 5% or less (almost no effect))"}, {"measurement": "J: blackgrass, herbicidal effect", "setting": "blackgrass [5]", "value": "0 (Herbicidal rate of 5% or less (almost no effect))"}, {"measurement": "K: Italian ryegrass, herbicidal effect rating", "setting": "Italian ryegrass [6]", "value": "0 (Herbicidal rate of 5% or less (almost no effect))"}, {"measurement": "O: lambsquarters, herbicidal effect", "setting": "lambsquarters [7]", "value": "2 (Herbicidal rate of 20% or more and less than 40%)"}, {"measurement": "K: Italian ryegrass, herbicidal effect", "setting": "Italian ryegrass [8]", "value": "1 (Herbicidal rate of 5% or more and less than 20%)"}, {"measurement": "H: barnyard grass, herbicidal effect", "setting": "barnyard grass [9]", "value": "0 (Herbicidal rate of 5% or less (almost no effect))"}, {"measurement": "H: barnyard grass, herbicidal effect rating", "setting": "barnyard grass [10]", "value": "0 (Herbicidal rate of 5% or less (almost no effect))"}, {"measurement": "M: velvetleaf, herbicidal effect rating", "setting": "velvetleaf [11]", "value": "0 (Herbicidal rate of 5% or less (almost no effect))"}, {"measurement": "F: southern crabgrass, herbicidal effect rating", "setting": "southern crabgrass [12]", "value": "0 (Herbicidal rate of 5% or less (almost no effect))"}, {"measurement": "P: chickweed, herbicidal effect rating", "setting": "chickweed [13]", "value": "5 (Herbicidal rate of 90% or more (almost completely withered))"}, {"measurement": "G: green foxtail, herbicidal effect rating", "setting": "green foxtail [14]", "value": "0 (Herbicidal rate of 5% or less (almost no effect))"}, {"measurement": "N: redroot pigweed, herbicidal effect rating", "setting": "redroot pigweed [15]", "value": "0 (Herbicidal rate of 5% or less (almost no effect))"}, {"measurement": "R: persian speedwell, herbicidal effect rating", "setting": "persian speedwell [16]", "value": "4 (Herbicidal rate of 70% or more and less than 90%)"}, {"measurement": "herbicidal effect on E (rice flat sedge), rating 0-5", "setting": "rice flat sedge", "value": "3 (Herbicidal rate of 40% or more and less than 70%)"}, {"measurement": "N: redroot pigweed, herbicidal effect", "setting": "redroot pigweed [17]", "value": "0 (Herbicidal rate of 5% or less (almost no effect))"}, {"measurement": "herbicidal effect on H (barnyard grass), rating 0-5", "setting": "barnyard grass [18]", "value": "1 (Herbicidal rate of 5% or more and less than 20%)"}, {"measurement": "L: windgrass, herbicidal effect", "setting": "windgrass", "value": "0 (Herbicidal rate of 5% or less (almost no effect))"}, {"measurement": "F: southern crabgrass, herbicidal effect", "setting": "southern crabgrass [19]", "value": "0 (Herbicidal rate of 5% or less (almost no effect))"}, {"measurement": "J: blackgrass, herbicidal effect rating", "setting": "blackgrass [20]", "value": "0 (Herbicidal rate of 5% or less (almost no effect))"}, {"measurement": "P: chickweed, herbicidal effect", "setting": "chickweed [21]", "value": "5 (Herbicidal rate of 90% or more (almost completely withered))"}, {"measurement": "I: wild oat, herbicidal effect", "setting": "wild oat [22]", "value": "0 (Herbicidal rate of 5% or less (almost no effect))"}, {"measurement": "R: persian speedwell, herbicidal effect", "setting": "persian speedwell [23]", "value": "4 (Herbicidal rate of 70% or more and less than 90%)"}]}]}
